Laboratory results taken from patent US20250243189A1, “HERBICIDAL IMIDAZOLE-CONTAINING COMPOUNDS” (SYNGENTA CROP PROTECTION AG, priority 2022, published 2025).

Key:
Assay type in all cases: in vivo
Conditions in all cases: 250 g/ha, evaluated after 13 days, five-point scale
[1] = tested on: Echinochloa crus-galli (ECHCG); assay: Post-emergence herbicidal glasshouse test
Protocol: (§1) Seeds of a variety of test species are sown in standard soil in pots Amaranthus retoflexus (AMARE), Echinochloa crus-galli (ECHCG), Setaria faberi (SETFA)). After cultivation for one day (pre-emergence) or after 8 days cultivation (post-emergence) under controlled conditions in a glasshouse (at 24/16° C., day/night; 14 hours light; 65% humidity), the plants are sprayed with an aqueous spray solution derived from the formulation of the technical active ingredient in acetone/water (50:50) solution containing 0.5% Tween 20 (polyoxyethelyene sorbitan monolaurate, CAS RN 9005-64-5). Compounds are applied at 250 g/ha unless otherwise stated. The test plants are then grown in a glasshouse under controlled conditions in a glasshouse (at 24/16° C., day/night; 14 hours light; 65% humidity) and watered twice daily. After 13 days for pre and post-emergence, the test is evaluated for the percentage damage caused to the plant. The biological activities are shown in the following table on a five-point scale (5=81-100%; 4=61-80%; 3=41-60%; 2=21-40%; 1=0-20%).

AMAPA [2] = assay: Post-emergence herbicidal glasshouse test
Protocol: [Worded in the source for another organism; this organism is reported under the same test.] as §1

IPOHE [3] = assay: Post-emergence herbicidal glasshouse test
Protocol: as §1

Setaria faberi (SETFA) [4] = assay: Post-emergence herbicidal glasshouse test
Protocol: as §1

[5] = tested on: Amaranthus retoflexus (AMARE); assay: Post-emergence herbicidal glasshouse test
Protocol: as §1

[6] = tested on: Echinochloa crus-galli (ECHCG); assay: Pre-emergence herbicidal glasshouse test
Protocol: as §1

AMAPA [7] = assay: Pre-emergence herbicidal glasshouse test
Protocol: [Worded in the source for another organism; this organism is reported under the same test.] as §1

IPOHE [8] = assay: Pre-emergence herbicidal glasshouse test
Protocol: as §1

Setaria faberi (SETFA) [9] = assay: Pre-emergence herbicidal glasshouse test
Protocol: as §1

[10] = tested on: Amaranthus retoflexus (AMARE); assay: Pre-emergence herbicidal glasshouse test
Protocol: as §1

SMILES | percentage damage caused to the plant, ECHCG [1] | percentage damage caused to the plant, AMAPA (AMAPA [2]) | percentage damage caused to the plant, IPOHE (IPOHE [3]) | percentage damage caused to the plant, SETFA (Setaria faberi (SETFA) [4]) | percentage damage caused to the plant, AMARE [5] | percentage damage caused to the plant, ECHCG [6] | percentage damage caused to the plant, AMAPA (AMAPA [7]) | percentage damage caused to the plant, IPOHE (IPOHE [8]) | percentage damage caused to the plant, SETFA (Setaria faberi (SETFA) [9]) | percentage damage caused to the plant, AMARE [10]
FC(F)(F)c1cn(Cc2ncc(Cl)cn2)c(-c2ccsc2Cl)n1 [Compound 1.025] | 4 (4=61-80%) | 3 (3=41-60%) | 3 (3=41-60%) | 4 (4=61-80%) | 4 (4=61-80%) | 5 (5=81-100%) | 5 (5=81-100%) | 4 (4=61-80%) | 5 (5=81-100%) | 5 (5=81-100%)
Cc1c(-c2nc(C(F)(F)F)cn2Cc2ncc(Cl)cn2)cnn1C [Compound 1.012, 5-chloro-2-[[2-(1,5-dimethylpyrazol-4-yl)-4-(trifluoromethyl)imidazol-1-yl]methyl]pyrimidine] | 1 (1=0-20%) | 3 (3=41-60%) | 3 (3=41-60%) | 1 (1=0-20%) | 2 (2=21-40%) | 1 (1=0-20%) | 5 (5=81-100%) | 5 (5=81-100%) | 1 (1=0-20%) | 3 (3=41-60%)
FC(F)(F)c1cn(Cc2ncc(Cl)cn2)c(-c2cc(Cl)c(Cl)s2)n1 [Compound 1.070] | 5 (5=81-100%) | 5 (5=81-100%) | 4 (4=61-80%) | 5 (5=81-100%) | 5 (5=81-100%) | 5 (5=81-100%) | 5 (5=81-100%) | 3 (3=41-60%) | 5 (5=81-100%) | 5 (5=81-100%)
FC(F)(F)c1cn(Cc2ncc(Cl)cn2)c(-n2cc(Cl)cn2)n1 [Compound 1.065, 5-chloro-2-[[2-(4-chloropyrazol-1-yl)-4-(trifluoromethyl)imidazol-1-yl]methyl]pyrimidine] | 2 (2=21-40%) | 4 (4=61-80%) | 3 (3=41-60%) | 2 (2=21-40%) | 4 (4=61-80%) | 1 (1=0-20%) | 5 (5=81-100%) | 4 (4=61-80%) | 2 (2=21-40%) | 5 (5=81-100%)
Fc1ccc(Cn2cc(C(F)(F)F)nc2-c2ccc(Cl)s2)nc1 [Compound 1.050] | 4 (4=61-80%) | 4 (4=61-80%) | 4 (4=61-80%) | – | 4 (4=61-80%) | 5 (5=81-100%) | 5 (5=81-100%) | 5 (5=81-100%) | – | 5 (5=81-100%)
Fc1cc(Cl)cnc1Cn1cc(C(F)(F)F)nc1-c1ccc(Cl)s1 [Compound 1.051] | 4 (4=61-80%) | 5 (5=81-100%) | 3 (3=41-60%) | – | 5 (5=81-100%) | 5 (5=81-100%) | 5 (5=81-100%) | 4 (4=61-80%) | – | 5 (5=81-100%)
FC(F)(F)c1cn(Cc2ncc(Cl)cn2)c(-c2sccc2Cl)n1 [Compound 1.002] | 1 (1=0-20%) | 1 (1=0-20%) | 1 (1=0-20%) | – | 1 (1=0-20%) | 1 (1=0-20%) | 2 (2=21-40%) | 1 (1=0-20%) | – | 2 (2=21-40%)
FC(F)c1cn(Cc2ncc(Cl)cn2)c(-c2ccc(Cl)s2)n1 [Compound 1.058, 5-chloro-2-[[2-(5-chloro-2-thienyl)-4-(difluoromethyl)imidazol-1-yl]methyl]pyrimidine] | 4 (4=61-80%) | 5 (5=81-100%) | 4 (4=61-80%) | – | 5 (5=81-100%) | 5 (5=81-100%) | 5 (5=81-100%) | 5 (5=81-100%) | – | 5 (5=81-100%)
FC(F)(F)c1cn(Cc2ncc(Cl)cn2)c(-c2csc(Cl)n2)n1 [Compound 1.009] | 1 (1=0-20%) | 2 (2=21-40%) | 1 (1=0-20%) | – | 2 (2=21-40%) | 1 (1=0-20%) | 3 (3=41-60%) | 1 (1=0-20%) | – | 4 (4=61-80%)
Cc1ccc(-c2nc(C(F)(F)F)cn2Cc2ncc(Cl)cn2)s1 [Compound 1.011] | 4 (4=61-80%) | 4 (4=61-80%) | 2 (2=21-40%) | – | 4 (4=61-80%) | 5 (5=81-100%) | 5 (5=81-100%) | 5 (5=81-100%) | – | 5 (5=81-100%)
FC(F)n1cc(-c2nc(C(F)(F)F)cn2Cc2ncc(Cl)cn2)cn1 [Compound 1.017] | 5 (5=81-100%) | 5 (5=81-100%) | 5 (5=81-100%) | – | 5 (5=81-100%) | 5 (5=81-100%) | 5 (5=81-100%) | 5 (5=81-100%) | – | 5 (5=81-100%)
FC(F)(F)c1cn(Cc2ncc(Cl)cn2)c(-c2cnn(C3CC3)c2)n1 [Compound 1.015] | 4 (4=61-80%) | 4 (4=61-80%) | 5 (5=81-100%) | – | 5 (5=81-100%) | 5 (5=81-100%) | 5 (5=81-100%) | 5 (5=81-100%) | – | 5 (5=81-100%)
Cc1cnc(Cn2cc(C(F)(F)F)nc2-c2ccc(Cl)s2)nc1 [Compound 1.072] | 5 (5=81-100%) | 5 (5=81-100%) | 4 (4=61-80%) | – | 5 (5=81-100%) | 5 (5=81-100%) | 5 (5=81-100%) | 5 (5=81-100%) | – | 5 (5=81-100%)
Fc1ccc(-c2nc(C(F)(F)F)cn2Cc2ncc(Cl)cn2)s1 [Compound 1.038] | 5 (5=81-100%) | 4 (4=61-80%) | 4 (4=61-80%) | – | 5 (5=81-100%) | 5 (5=81-100%) | 5 (5=81-100%) | 5 (5=81-100%) | – | 5 (5=81-100%)
Cn1ccc(-c2nc(C(F)(F)F)cn2Cc2ncc(Cl)cn2)n1 [Compound 1.004] | 1 (1=0-20%) | 1 (1=0-20%) | 1 (1=0-20%) | – | 1 (1=0-20%) | 1 (1=0-20%) | 1 (1=0-20%) | 1 (1=0-20%) | – | 1 (1=0-20%)
Cc1nnsc1-c1nc(C(F)(F)F)cn1Cc1ncc(Cl)cn1 [Compound 1.007] | 2 (2=21-40%) | 4 (4=61-80%) | 4 (4=61-80%) | – | 5 (5=81-100%) | 4 (4=61-80%) | 5 (5=81-100%) | 5 (5=81-100%) | – | 5 (5=81-100%)
